In patent publication US20070098770A1, “Cosmetic path using method thereof, and cosmetic path package” (priority 2003, published 2007):

Key:
[1] = cited from earlier work
[2] = Stability of vitamin C dissolved in water; assay type: physicochemical; conditions: eight hours after it is dissolved in water

portion oxidized into dehydroascorbic acid and deactivated by hydrolysis [2]	Compound	volume of an absolute alcohol in which 1 g dissolves ([1]; absolute alcohol) [mL]	volume of an alcohol in which 1 g dissolves ([1]; alcohol) [mL]	volume of glycerol in which 1 g dissolves ([1]; glycerol) [mL]	volume of propylene glycol in which 1 g dissolves ([1]; propylene glycol) [mL]	volume of water in which 1 g dissolves ([1]; water) [mL]	solubility in an alcohol ([1]; alcohol (95% in ethanol))	solubility in water ([1]; water)
at least 10%	O=C1O[C@H]([C@@H](O)CO)C(O)=C1O [Vitamin C, L-ascorbic acid]	50	30	100	20	3	–	–
–	tocopherol [vitamin E]	–	–	–	–	–	readily soluble	almost insoluble
